We go through 21 molecules from ChEMBL document CHEMBL3232962, “Identification and optimization of novel Hsp90 inhibitors with tetrahydropyrido[4,3-d]pyrimidines core through shape-based screening” (Eur J Med Chem, 2014).

Assay [1] concerns the target T1, Heat shock protein HSP 90-beta (Homo sapiens, UniProt P08238). Put plainly: Inhibition of full-length HSP90 (unknown origin) expressed in Escherichia coli assessed as inhibition of ATPase activity after 3 hrs by spectrophotometric analysis.
In assay [2] the target is T1, Heat shock protein HSP 90-beta. As to the kind of experiment: Displacement of FITC-geldanamycin from HSP90 (unknown origin) after 30 mins by fluorescence polarization assay. Background: Fluorescence polarisation rises when a labelled molecule tumbles more slowly, as on binding a larger partner.
The nature of assay [3]: Antiproliferative activity against human A231 cells after 48 hrs by MTT assay. In kind it is functional, cell-based. Particulars: A231, 48 h.
Assay [4] can be described thus: cells. Particulars: Homo sapiens, SK-BR-3, 48 h.
Description: Antiproliferative activity against human SKBR3 cells after 48 hrs by MTT assay
For assay [5], the system named is HCT-116. As to the kind of experiment: cells. The following applies: Homo sapiens, HCT-116, 48 h.
The test system of assay [6] is MCF7. Put plainly: cells. The following applies: Homo sapiens, MCF7, 48 h.

Where only a bound is given, the exact number is not on record here.

T1 sequence (P08238 whole entry): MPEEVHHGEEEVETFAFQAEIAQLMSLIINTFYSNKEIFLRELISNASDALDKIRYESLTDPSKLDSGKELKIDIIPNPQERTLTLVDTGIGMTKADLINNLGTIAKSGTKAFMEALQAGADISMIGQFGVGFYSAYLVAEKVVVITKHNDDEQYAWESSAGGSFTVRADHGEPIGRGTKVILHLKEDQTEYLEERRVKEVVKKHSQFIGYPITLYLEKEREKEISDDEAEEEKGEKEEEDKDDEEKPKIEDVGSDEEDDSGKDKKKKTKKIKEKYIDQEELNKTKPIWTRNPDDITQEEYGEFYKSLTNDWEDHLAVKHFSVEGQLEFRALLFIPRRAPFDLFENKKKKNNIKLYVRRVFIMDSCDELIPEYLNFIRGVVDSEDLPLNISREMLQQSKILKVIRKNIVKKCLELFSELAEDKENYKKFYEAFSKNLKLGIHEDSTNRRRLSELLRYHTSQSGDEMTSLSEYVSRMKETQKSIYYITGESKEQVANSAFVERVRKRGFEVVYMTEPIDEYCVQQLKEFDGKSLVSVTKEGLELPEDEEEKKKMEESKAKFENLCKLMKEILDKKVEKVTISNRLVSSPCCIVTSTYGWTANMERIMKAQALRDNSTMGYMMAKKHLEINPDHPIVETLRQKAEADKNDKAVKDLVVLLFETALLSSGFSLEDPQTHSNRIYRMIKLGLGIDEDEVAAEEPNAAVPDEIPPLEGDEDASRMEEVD

In general, IC50 refers to the concentration that gives 50% inhibition. Regarding `CN1CCN(c2ncc3c(n2)CCN(Cc2ccc(Br)s2)C3)CC1`, the IC50 in assay [1] is 63.2 µM.
For `CCN1CCN(c2ncc3c(n2)CCN(Cc2ccc(Br)s2)C3)CC1`, the IC50 in assay [1] turned out to be 74.7 µM.
Turning to `COc1cc(OC)c(OC)cc1CN1CCc2nc(N3CCOCC3)ncc2C1`, in assay [1], the IC50 worked out at 50.9 µM.
Regarding `c1cc2c(cc1CN1CCc3nc(Nc4ccc5c(c4)OCCO5)ncc3C1)OCCO2`, the IC50 in assay [1] is above 100 µM.
In the case of `Fc1ccc(CN2CCc3nc(N4CCN(c5ncccn5)CC4)ncc3C2)cc1`, the IC50 is above 100 µM in assay [2] and 40.2 µM in assay [1].
For `Clc1ccc(CN2CCc3nc(N4CCN(c5ncccn5)CC4)ncc3C2)cc1`, the IC50 in assay [2] is above 100 µM; in assay [1] it was 47.9 µM.
For `COc1cc(CN2CCc3nc(N4CCOCC4)ncc3C2)cc(OC)c1OC`, in assay [1], the IC50 was 55.1 µM.
On to `CN(C)c1ccc(CN2CCc3nc(N4CCN(c5ncccn5)CC4)ncc3C2)cc1`, for which the IC50 was above 100 µM in assay [2] and 46.1 µM in assay [1].
As to `CCCN1CCN(c2ncc3c(n2)CCN(Cc2cc(Br)cs2)C3)CC1`, the IC50 in assay [1] was 59.3 µM.
Consider `COc1ccc(OC)c(CN2CCc3nc(N4CCN(c5ncccn5)CC4)ncc3C2)c1`, for which the IC50 in assay [3] came out at 27.5 µM; in assay [2] it was 45.4 µM; in assay [4], 10.7 µM; in assay [1], 35.2 µM; in assay [5], 43.2 µM; in assay [6], 53.2 µM.
With `CC1CCN(c2ncc3c(n2)CCN(Cc2ccc(Br)s2)C3)CC1`, the IC50 in assay [1] amounted to 88 µM.
For `COc1ccc(OC)c(C(=O)N2CCc3nc(N4CCN(c5ncccn5)CC4)ncc3C2)c1`, the IC50 in assay [3] worked out at 51.3 µM; in assay [2] it was 40.4 µM; in assay [4], 23.5 µM; in assay [1], 16.4 µM; in assay [5], 34.6 µM; in assay [6] it was 43.3 µM.
Turning to `O=C(c1ccc(F)cc1)N1CCc2nc(N3CCN(c4ncccn4)CC3)ncc2C1`, the IC50 in assay [3] is 54.4 µM; in assay [2], above 100 µM; in assay [4], 24.5 µM; in assay [1], 27.2 µM; in assay [5], 67.9 µM; in assay [6] it was 46.2 µM.
On to `O=C(c1ccc(Cl)cc1)N1CCc2nc(N3CCN(c4ncccn4)CC3)ncc2C1`, for which the 50% inhibitory concentration (IC50) was 24.6 µM in assay [3]; above 100 µM in assay [2]; 11.2 µM in assay [4]; 24.5 µM in assay [1]; 21.7 µM in assay [5]; 42.2 µM in assay [6].
As for `COc1ccc(C(=O)N2CCc3nc(N4CCN(c5ncccn5)CC4)ncc3C2)c(OC)c1`, the IC50 in assay [3] came out at 37.6 µM; in assay [2] it was 30.5 µM; in assay [4], 16 µM; in assay [1], 7.88 µM; in assay [5], 11.5 µM; in assay [6], 20.2 µM.
In the case of `O=C(c1ccc(O)cc1O)N1CCc2nc(N3CCN(c4ncccn4)CC3)ncc2C1`, the IC50 in assay [3] is 21.3 µM; in assay [2], 10.2 µM; in assay [4], 12.2 µM; in assay [1] it was 3.23 µM; in assay [5], 23.1 µM; in assay [6], 17.5 µM.
Regarding `O=C(c1cc(Cl)c(O)cc1O)N1CCc2nc(N3CCN(c4ncccn4)CC3)ncc2C1`, the IC50 in assay [3] turned out to be 6.65 µM; in assay [2], 1.67 µM; in assay [4] it was 5.17 µM; in assay [1] it was 0.93 µM; in assay [5], 2.74 µM; in assay [6], 10.2 µM.
Turning to `Nc1ncc2c(n1)CCN(C(=O)c1cc(Cl)c(O)cc1O)C2`, the IC50 in assay [3] worked out at 5.22 µM; in assay [2], 0.31 µM; in assay [4] it was 2.3 µM; in assay [1], 0.51 µM; in assay [5], 1.21 µM; in assay [6], 4.41 µM.
Regarding `Cc1ncc2c(n1)CCN(C(=O)c1cc(Cl)c(O)cc1O)C2`, the IC50 in assay [3] was 3.76 µM; in assay [2], 0.1 µM; in assay [4], 4.32 µM; in assay [1], 0.42 µM; in assay [5], 2.82 µM; in assay [6], 1.91 µM.
As to `CO[C@H]1/C=C\C=C(/C)C(=O)NC2=CC(=O)C(NCCN(C)C)=C(C[C@@H](C)C[C@H](OC)[C@H](O)[C@@H](C)/C=C(\C)[C@@H]1OC(N)=O)C2=O` [ALVESPIMYCIN], the IC50 turned out to be 0.17 µM in assay [3], 3.11 µM in assay [4], 1.21 µM in assay [5] and 0.8 µM in assay [6].
As for `CC(C)c1cc(C(=O)N2Cc3ccc(CN4CCN(C)CC4)cc3C2)c(O)cc1O` [ONALESPIB], the IC50 in assay [3] is 1.01 µM; in assay [2], 0.03 µM; in assay [4] it was 0.14 µM; in assay [1] it was 0.35 µM; in assay [5] it was 0.08 µM; in assay [6], 0.28 µM.
